Laboratory results from patent publication US20030125283A1, “Therapy of proliferative disorders by direct irradiation of cell nuclei with tritiated nuclear targetting agents” (priority 2002, published 2003).

Legend:
[1] = test system: 4047 colon cancer cells, BT-20 and MCF-7 breast cancer cell lines; test: Killing of tumor cells in vitro, cell counts and trypan blue viability; format: cell-based, rat (4047), human (BT-20
Protocol: In-vitro experiments were performed using cultured 4047 colon cancer cells as described in Gatenby, R A and Taylor D D (1990) Cancer Res. 50: 7997-8001. 4047 cells (2×10^4) were placed in each well of a 6-well plate and incubated overnight in 1 ml of RPMI-1640 media with 10% fetal bovine serum (FBS). The cells were divided into 4 groups as follows:
Group 4: incubated in unlabelled thymidine at concentrations 1, 2, 3, and 4 mM (so that concentration of thymidine was identical to that of the labeled thymidine in Group 3).
Each group was incubated for 24 hours and then washed 3 times in sterile physiologic saline (PBS). One milliliter of unlabelled media was added and the cells incubated for an additional 48 hours. Subsequently, the cells were washed with PBS, lifted with trypsin, and counted with a hematocytometer. Percent cell viability was determined by exclusion of trypan blue. All measurements were performed in triplicate. Once a dose-response curve was established in the 4047 cell line, identical experiments were conducted with the BT-20 and MCF-7 breast cancer cell lines.

[2] = Caro, supra; cited from earlier work
[3] = test system: BT-20 tumor xenografts; test: Reduction in tumor volume in the half-life study (Example 7); format: in vivo, Nu/Nu female nude mice; conditions: each treatment subgroup, intratumoral 4 to 50 μCi/g tumor
Protocol: BT-20 tumor cells (10 million cells in 0.2 ml PBS) are inoculated into the right flank of each mouse as in Example 4 above. The tumors are grown to volumes of 300-500 mm^3 over the course of 3-4 weeks.
After tumors in all mice have reached the required 300-500 mm^3 volume, each group of 60 is divided into ten subgroups of six animals each.
Reduction in tumor volume is estimated as in Example 4 for each treatment subgroup over the course of the experiment. The data is analyzed by calculating the percentage of tumor reduction as in Example 4. The error in this measurement is determined from the measured standard deviation and the standard formula for calculating the error for a ratio given above in Equation 1. Systemic toxicity is not directly measured, but is monitored as described above in Example 4.

[4] = test system: Human BT-20 breast cancer tumors; test: Preliminary in vivo dose-response curve, single intratumoral injections (Example 8); set-up: species or system Nu/Nu female nude mice; conditions: single intratumoral injection; theoretical
Description: Six experimental groups of 18 4-6 week old Nu/Nu female nude mice (Charles River Laboratory, Wilmington, Mass.) are used. In each of the six groups an additional group of 6 mice serves as an uninoculated control. Thus the total number of experimental mice is 108 and total number of uninoculated control mice is 36.
Each experimental group is then divided into two subgroups: one treatment subgroup of 12 mice and one untreated (but inoculated) control subgroup of six mice. […] Because the tumors have variable growth rates, subgroups are chosen such that the mean tumor volume and standard deviation are similar for each subgroup. […]
The mice are monitored daily and the tumors measured daily by microcaliper for a minimum of 3 weeks or until tumor re-growth begins. Tumor volumes are calculated as in Example 2. Three daily tumor volumes are measured for the first group so that the error in the volume measurement can be determined as in Example 4. The mean volumes and standard deviations are calculated and growth rate curves are monitored during the experiment. The data are expressed as percent difference of the tumor volume at any given time point to its pre-injection volume.
Tumor volume data is analyzed as described above in the in Example 4 by calculating percent tumor reduction and initial tumor volume. Systemic toxicity is not directly measured, but is monitored as described above in Example 4. […]

[5] = test system: BT20 human breast cancer tumors; test: Efficacy of a multiple dose regimen, intratumoral versus i.v. (Example 9); format: in vivo, female nude mice
Protocol: To accomplish this, the superposition method of Sharget and Yu, supra, is used to extend the two compartment pharmacokinetic model presented in Example 6 from the single dose to the multidose case. […] Using the superposition method, the maximum and minimum of the multi-dose regimen can be averaged together to give an estimate of the mean concentration in the tumor during multiple injections (Sharget and Yu, supra).
This dose regimen is tested experimentally as follows.
60 4-6 weeks old female nude mice in 2 groups of 30 mice are used. Each group of 30 mice is further divided into two subgroups (10 control mice and 20 treatment mice). As before, the treatment mice will be divided into subgroups that consist of similar distribution of tumor volumes. In each treatment subgroup, 10×10^6 BT20 human breast cancer cells are inoculated subcutaneously in flanks of the mice as in Example 4. […] Tumors are grown to 300-500 mm^3 in volume.
The mice from one treatment subgroup receive an intratumoral injection of 16 μCi/20 μl normal saline (a dose of 32 μCi/gram of tumor). The dose is repeated every 7 days for a total of 3 doses.

[6] = mouse, in vivo
Protocol: In the treatment and control groups, 10×10^6 BT-20 human breast cancer cells are inoculated subcutaneously into the flanks of the mice. Animal weights are recorded daily and animals are closely monitored for signs of illness. Approximate tumor volumes are measured every other day using calipers to measure the height (H), width (W), and length (L) of each tumor. Tumor volumes are calculated according to the formula for volume of an ellipsoid V=πHWL/6. Tumors grow to 300-500 mm^3 in approximately 3-4 weeks after inoculation. A set of 6 measurements per day is made on a single tumor in the control group on one day of each week to determine the standard deviation versus volume in the volume measurements.
Tumor growth is monitored for a total of 4 weeks, whereupon the mice are sacrificed and the tumors and other tissue are harvested.
Lines are drawn along the anterior-posterior length of the harvested tumors. In addition, the top, left and right of the harvested tumors is marked. […] A portion of the sample in is placed in Hionic-Fluor LSC cocktail and the radioactivity counted in a scintillation counter. […]
Ten to fifteen microliters of the dissolved tissue or is spotted on a silica gel TLC plate, and the plate is placed in a chromatography chamber containing ˜200 ml of eluant so the dissolved tissue sample is just above the eluant surface. […] The radioactivity is counted in the scintillation counter. […]

## Cc1cn([C@H]2C[C@H](O)[C@@H](CO)O2)c(=O)[nH]c1=O [Unlabelled thymidine, thymidine, reference compound]
[1]; unlabelled thymidine 1, 2, 3, and 4 mM, 24 hours incubation, then 48 hours in unlabelled media
  effect on tumor growth: no effect on tumor growth

## [3H]O[3H] [^3H-water, reference compound]
[1]; 0.1-3.0 μCi/ml media, 24 hours incubation, then 48 hours in unlabelled media, ^3H-water effect particularly above 1 μCi/ml, ^3H-thymidine compared with ^3H-water at each dose (p<<0.01)
  cytotoxicity: slight cytotoxicity

## [3H] [tritium]
[2]
  effective biological half-life: approximately 12 days

## Cc1cn([C@H]2C[C@H](O)[C@@H](CO)O2)c(=O)[nH]c1=O [^3H-thymidine]
[1]; 0.1 μCi/ml (concentration used only with 4047 cells)
  antitumor effect: significant antitumor effect
[1]; populations exposed to 1.0 μCi/ml or greater, in most experiments
  viable tumor cells identified: few viable tumor cells
[3]
  tumor volume: significant reduction in tumor volume
[4]
  ED90, minimal effective dose for eradicating tumors in 90% of the treated mice: 16 μCi/g tumor
[5]; i.v. injection 16 μCi (~800 μCi/kg body wt.) once a week for three weeks, after three doses
  r, tumor regression: approximately 0.8
[5]; intratumoral 16 μCi/20 μl saline (32 μCi/gram of tumor) every 7 days, 3 doses
  r, tumor regression: approximately zero
[6]
  share of injected dose retained in the tumor: about 10%
